Measurements as given in patent US5326786A, “5,6,7,9-tetrahydro-1,2,3-trimethoxy-9-oxobenzo[alpha]heptalene derivative and pharmaceutical use” (Ohgen Research Laboratories Ltd., priority 1992, dated 1994).
In brackets after ≈: the same amount, converted by molar mass. Several values for one entry are separate records, joined by “and”; a condition that tells them apart may be missing. Equal values may be shown once. Where a name gives a salt, the structure may show the parent alone.

How the values were obtained:
[1] = system: p388/S mouse leukemic cells; experiment: In vitro cancer cell proliferation inhibiting test (1); format: cell-based; conditions: 48 h, read-out: IC50 (50% proliferation inhibitory concentration), RPMI 1640 with 10% fetal bovine serum, cultured for 2 days
Description: (§1) (1) 10^6 each of mouse leukemic cells p388/S and adriamycin-resistant mouse leukemic cells p388/ADR are suspended in RPMI 1640 media each containing 10% fetal bovine serum, respectively, and cultured for 2 days in the presence of a test compound (this was used after it was dissolved in dimethylsulfoxide to 1 mg/ml and the solution was diluted with a phosphate buffer).

[2] = system: adriamycin-resistant mouse leukemic cells p388/ADR; experiment: as above; format: cell-based; conditions: 48 h, read-out: IC50 (50% proliferation inhibitory concentration), RPMI 1640 with 10% fetal bovine serum, cultured for 2 days
Description: as §1

CDF male mice = experiment: Acute toxicity test; format: in vivo, mouse; conditions: intraperitoneal
Acute toxicity test = format: in vivo, mouse; conditions: mouse, in vivo, ip; intraperitoneal; CDF male mice; 10 days observation; Litchfield Wilcoxon method; printed interval 233 to 310 mg/kg
[3] = known compounds, background; cited from earlier work
cancer cells = conditions: known compounds, background; cited from earlier work
[4] = system: p388/S mouse leukemic cells; experiment: In vitro cancer cell proliferation inhibiting test (2), Trypan Blue living cell count; format: cell-based
Description: (§2) (2) Mouse leukemic cells p388/S and adriamycin-resistant mouse leukemic cells P388/ADR subculturally transplanted in the abdominal cavity of mice were taken out together with the asites therefrom, respectively, and after washing, suspended in RPMI 1640 media (each containing 10% fetal bovine serum and 10 μM 2-mercaptoethanol) to 2×10^5 cells/ml, respectively.
(§3) Test solutions (solutions of the compound of the later-described Example 3 in phosphate-buffered physiological saline) were added to portions of each of these cell suspensions, respectively; and the mixtures were separately put into a 24-well culture plate and subjected to culture for 2 days in a 5% carbon dioxide culturing vessel.

[5] = system: adriamycin-resistant mouse leukemic cells p388/ADR; experiment: as above; format: cell-based
Description: as §2, §3

| Structure (SMILES) | IC50 [1] | IC50 [2] | toxicity [3] | carcinostatic action (cancer cells) | other results |
| --- | --- | --- | --- | --- | --- |
| COc1cc2c(c(OC)c1OC)-c1ccc(OC)c(=O)cc1C(NCC1COC(C)(C)O1)CC2 (racemic) [DL-N-(O,O-isopropylideneglyceryl)deacetylcolchicine] | 0.013 µg/mL (≈ 0.0276 µM) | 0.13 µg/mL (≈ 0.276 µM) |  |  |  |
| COc1cc2c(c(OC)c1OC)-c1ccc(OC)c(=O)cc1C(NC[C@@H]1COC(C)(C)O1)CC2 (stereo partly drawn) [Example 3, L-N-(O,O-isopropylideneglycerol)deacetylcolchicine] | 0.018 µg/mL (≈ 0.0382 µM) | 0.14 µg/mL (≈ 0.297 µM) |  |  | body weight change (CDF male mice; 10 days observation): tended to decrease up to 2 to 4 days after administration, but thereafter increased gradually; acute toxicity symptoms (CDF male mice; high administration groups, on and after one day after administration): the lie of hair got worse on and after one day after administration, and cases where diarrhea or loss of hair arose were also observed; LD50 at 240 h (Acute toxicity test): 269 mg/kg |
| COc1cc2c(c(OC)c1OC)-c1ccc(OC)c(=O)cc1[C@@H](NC(C)=O)CC2 [Colchicine, colchicine] |  |  | strong toxicity | no sufficient carcinostatic action |  |
| CNc1ccc2c(cc1=O)C(NCC1COC(C)(C)O1)CCc1cc(OC)c(OC)c(OC)c1-2 (centres unmarked) [N'-(O,O-isopropylideneglyceryl)-N-methyldeacetylcolchiceinamide tartrate salt] |  |  |  |  | IC50 ([4]; Mus musculus, P388/S, 48 h, read-out: IC50 (50% proliferation inhibitory concentration), p388/S, 2 days, experiment carried out three times, one value per experiment): 0.0135 µg/mL; IC50 (50% proliferation inhibitory concentration), p388/S ([4]; p388/S, 2 days, experiment carried out three times, one value per experiment, tartrate salt): 0.0128 µg/mL and 0.0149 µg/mL; IC50 (50% proliferation inhibitory concentration), P388/ADR ([5]; 2 days, experiment carried out three times, one value per experiment, tartrate salt): 0.0164 µg/mL and 0.0192 µg/mL; IC50 ([5]; Mus musculus, 48 h, read-out: IC50 (50% proliferation inhibitory concentration), P388/ADR, 2 days, experiment carried out three times, one value per experiment): 0.018 µg/mL |
| COc1cc2c(c(OC)c1OC)-c1ccc(OC)c(=O)cc1C(NC[C@H]1COC(C)(C)O1)CC2 (stereo partly drawn) [D-N-(O,O-isopropylideneglyceryl)deacetylcolchicine] | 0.014 µg/mL (≈ 0.0297 µM) | 0.038 µg/mL (≈ 0.0806 µM) |  |  |  |
| CNc1ccc2c(cc1=O)[C@@H](NC(C)=O)CCc1cc(OC)c(OC)c(OC)c1-2 [N-methylcolchiceinamide] |  |  | strong toxicity | no sufficient carcinostatic action |  |
